{
  "source": "patent US20240115557A1",
  "about": "“INHIBITORS OF RNA-GUIDED NUCLEASES AND USES THEREOF” (The Brigham and Women's Hospital, Inc., priority 2022, published 2024)",
  "key": {"SpCas9:gRNA complex [1]": {"molecular_target": "T1, SpCas9:gRNA complex (Streptococcus pyogenes serotype M1, UniProt Q99ZW2)", "T1 sequence (Q99ZW2 whole entry, one chain of several)": "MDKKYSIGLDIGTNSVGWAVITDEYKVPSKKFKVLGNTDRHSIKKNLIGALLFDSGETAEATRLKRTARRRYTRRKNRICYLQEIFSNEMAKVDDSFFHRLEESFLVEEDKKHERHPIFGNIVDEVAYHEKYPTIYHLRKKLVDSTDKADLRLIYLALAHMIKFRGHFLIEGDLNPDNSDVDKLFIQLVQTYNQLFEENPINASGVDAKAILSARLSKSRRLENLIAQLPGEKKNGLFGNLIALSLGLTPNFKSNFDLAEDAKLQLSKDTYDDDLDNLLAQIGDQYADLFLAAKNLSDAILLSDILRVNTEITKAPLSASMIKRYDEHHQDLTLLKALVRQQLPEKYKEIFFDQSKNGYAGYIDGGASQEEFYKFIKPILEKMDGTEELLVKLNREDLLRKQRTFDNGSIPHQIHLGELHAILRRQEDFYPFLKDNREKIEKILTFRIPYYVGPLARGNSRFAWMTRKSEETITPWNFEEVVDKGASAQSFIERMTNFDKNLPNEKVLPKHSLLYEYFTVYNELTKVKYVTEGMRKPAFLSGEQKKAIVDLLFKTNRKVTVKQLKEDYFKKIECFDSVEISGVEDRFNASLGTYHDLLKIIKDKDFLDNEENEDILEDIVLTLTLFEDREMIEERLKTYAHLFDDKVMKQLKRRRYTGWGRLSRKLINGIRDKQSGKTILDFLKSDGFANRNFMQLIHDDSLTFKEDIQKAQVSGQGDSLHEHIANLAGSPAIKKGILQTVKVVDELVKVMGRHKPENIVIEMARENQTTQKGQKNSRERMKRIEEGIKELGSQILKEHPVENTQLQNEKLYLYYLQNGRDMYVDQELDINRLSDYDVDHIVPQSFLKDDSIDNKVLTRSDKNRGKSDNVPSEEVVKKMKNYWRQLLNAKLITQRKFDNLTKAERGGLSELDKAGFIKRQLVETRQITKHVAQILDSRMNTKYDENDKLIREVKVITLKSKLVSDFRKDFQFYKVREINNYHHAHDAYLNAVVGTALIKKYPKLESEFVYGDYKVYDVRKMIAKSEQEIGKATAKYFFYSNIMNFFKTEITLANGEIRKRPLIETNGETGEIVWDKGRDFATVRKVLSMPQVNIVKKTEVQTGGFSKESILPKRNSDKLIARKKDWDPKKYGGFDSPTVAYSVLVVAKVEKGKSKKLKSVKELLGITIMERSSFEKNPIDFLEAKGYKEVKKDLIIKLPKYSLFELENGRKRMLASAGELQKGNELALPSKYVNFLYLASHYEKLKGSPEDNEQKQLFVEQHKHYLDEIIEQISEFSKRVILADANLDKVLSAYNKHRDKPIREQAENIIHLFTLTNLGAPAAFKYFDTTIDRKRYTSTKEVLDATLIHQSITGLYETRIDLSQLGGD", "assay": "biochemical"}, "SpCas9:gRNA complex [2]": {"molecular_target": "T1, SpCas9:gRNA complex", "settings": "control without BRD7586 scaffold"}, "SpCas9:gRNA": {"molecular_target": "SpCas9:gRNA (Streptococcus pyogenes serotype M1, UniProt Q99ZW2)", "sequence (Q99ZW2 whole entry)": "as the sequence (Q99ZW2 whole entry, one chain of several) above", "assay": "Photo-crosslinking to purified SpCas9:gRNA", "type": "binding", "settings": "1 μM probe, 1 μM SpCas9:gRNA, UV 365 nm", "protocol": "Cas9 RNP complex was formed by mixing Cas9 (1 μM) and the eGFP-targeting gRNA (1 μM) in a binding buffer (HEPES 20 mM, KCl 100 mM, pH 7.6) for 15 min. Next, BRD7586 (5 μM) was added to the mixture when competition is required (the last lane of FIG. 68B). Finally, Diazirine-BRD7586 was added (1 μM) and the mixture was incubated for 20 min at RT with a final reaction volume of 20 μL in a PCR tube. The mixture was irradiated with UV (365 nm) for 5 min on ice, then 2.5 μL of 10% RapiGest SF solution in PBS was added. Click chemistry was initiated by adding 100 μM of TAMRA-azide (Sigma #760757), 350 μM of Cu-TBTA, and 1.5 mM ascorbate with a final reaction volume of 27 μL. The reaction was conducted for 1 h at 30° C., then SDS-PAGE was performed immediately. The fluorescence gel scanning was conducted using an Azure 600 (Azure Biosystem) to detect the TAMRA fluorescence."}, "SpCas9": {"molecular_target": "SpCas9 (Streptococcus pyogenes serotype M1, UniProt Q99ZW2)", "sequence (Q99ZW2 whole entry)": "as the sequence (Q99ZW2 whole entry, one chain of several) above", "assay": "T7E1 assay for indels at the eGFP gene", "type": "cell-based", "settings": "U2OS.eGFP.PEST, 24 h", "protocol": "FIG. 72A-72E Validation of BRD7586 in cells FIG. 72A T7E1 assay for detecting indels at the eGFP gene. U20S.eGFP.PEST cells were nucleofected with plasmid and incubated with BRD7586 for 24 h. Blue arrowheads indicate uncleaved DNA and black arrowheads indicate cleaved DNA. FIG. 72B T7E1 for detecting indels at the eGFP gene. U20S.eGFP.PEST cells were nucleofected with RNP and incubated with BRD7586 for 24 h. Blue arrowheads indicate uncleaved DNA and black arrowheads indicate cleaved DNA FIG. 72C Inhibition of SpCas9 by BRD0539 and BRD7586 in the eGFP disruption assay using plasmid delivery method and RNP delivery method (U20S.eGFP.PEST cells, 24 h). Error bars represent SD from 3 or 4 independent experiments. […]\nFIG. 75A-75E Mechanism of action studies of BRD7586 FIG. 75A Workflow of the chemoproteomics experiments using the diazirine-based photo-crosslinking probe to identify binding sites of BRD7586 on SpCas9 FIG. 75B T7E1 assay for measuring the activity of Diazirine-BRD7586. […] Blue arrowheads indicate uncleaved DNA while black arrowheads indicate cleaved DNA from the T7E1 reaction FIG. 75C Chemical structure of the acid-cleavable and isotope-coded biotin-azide used for chemoproteomics experiments FIG. 75D Structure of the peptide-compound conjugates to be detected from the mass spectrometry. […]"}},
  "data": [
    {"smiles": "O=C(CCCCC1SC[C@H]2NC(=O)N[C@@H]12)NCCOCCOCCOCCC(=O)NCCOc1ccc(S(=O)(=O)CCC(=O)Nc2nc(-c3ccncc3)cs2)cc1", "note": "(stereo partly shown) [biotin-BRD7586]", "values": [
      {"measurement": "Kd", "setting": "SpCas9:gRNA complex [1]", "value": 520, "unit": "nM"}
    ]},
    {"smiles": "[N-]=[N+]=NCCOCCOCCOCCNC(=O)CCCC[C@@H]1SC[C@@H]2NC(=O)N[C@@H]21", "note": "[biotin-PEG3-azide]", "values": [
      {"measurement": "Binding in BLI", "setting": "SpCas9:gRNA complex [2]", "value": "No detectable binding"}
    ]},
    {"smiles": "C#CCCC1(CCOc2ccc(S(=O)(=O)CCC(=O)Nc3nc(-c4ccncc4)cs3)cc2)N=N1", "note": "[diazirine-BRD7586]", "values": [
      {"measurement": "Photo-crosslinking to SpCas9", "setting": "SpCas9:gRNA", "value": "successful covalent conjugation of the probe to SpCas9"},
      {"measurement": "Inhibition of SpCas9 in cells by probe", "setting": "SpCas9", "value": "inhibited SpCas9 in cells"}
    ]}
  ]
}
